Laboratory results reported in patent publication US11407767B2, “Heterocyclyl substituted pyrrolopyridines that are inhibitors of the CDK12 kinase” (The University of Nottingham, priority 2017, dated 2022).
Structures can show the parent of a compound that is named as a salt.

Target: CDK12/CycK (Homo sapiens, UniProt Q9NYV4)
Test: Inhibition of CDK12 (ADP-Glo kinase assay)
Format: biochemical
Details: 60 nM CDK12/CycK, 30 minutes pre-incubation, 1 μM ATP, 0.5 μM RBER-IRStide substrate, 1 h at 25° C., read-out: CDK12/cyclin K IC50
Method: Assay buffer comprised 50 mM HEPES pH 7.5, 1 mM DTT, 20 mM MgCl2, 3 mM MnCl2, 3 μM Na3VO4 and 50 μg/ml PEG8000. Kinase reactions were carried out in 384-well Optiplates™ (PerkinElmer 6007299). Test compounds were dissolved & diluted in dimethyl sulfoxide (DMSO) and cross diluted into assay buffer with a final DMSO concentration of 1% (v/v) in the assay. Test compounds (or 1% DMSO in control and blank wells) were pre-incubated with 60 nM CDK12/CycK for 30 minutes. After this time 1 μM Adenosine-5′-triphosphate (ATP) and 0.5 μM RBER-IRStide substrate (ProQinase 0863-0000-1) were added to commence the kinase reaction. Incubations were carried out for 1 h at 25° C. with kinase activity determined using the ADP-Glo™ reagent from Promega according to the manufacturer's instructions. Light generated is proportional to kinase activity and measured using a luminometer (EnVision, PerkinElmer). The signal obtained in the blank wells (containing no kinase) was subtracted from all other wells and IC50 values were determined by fitting a sigmoidal curve to % inhibition of control versus Log10 compound concentration.

Chain of CDK12/CycK (Q9NYV4 whole entry): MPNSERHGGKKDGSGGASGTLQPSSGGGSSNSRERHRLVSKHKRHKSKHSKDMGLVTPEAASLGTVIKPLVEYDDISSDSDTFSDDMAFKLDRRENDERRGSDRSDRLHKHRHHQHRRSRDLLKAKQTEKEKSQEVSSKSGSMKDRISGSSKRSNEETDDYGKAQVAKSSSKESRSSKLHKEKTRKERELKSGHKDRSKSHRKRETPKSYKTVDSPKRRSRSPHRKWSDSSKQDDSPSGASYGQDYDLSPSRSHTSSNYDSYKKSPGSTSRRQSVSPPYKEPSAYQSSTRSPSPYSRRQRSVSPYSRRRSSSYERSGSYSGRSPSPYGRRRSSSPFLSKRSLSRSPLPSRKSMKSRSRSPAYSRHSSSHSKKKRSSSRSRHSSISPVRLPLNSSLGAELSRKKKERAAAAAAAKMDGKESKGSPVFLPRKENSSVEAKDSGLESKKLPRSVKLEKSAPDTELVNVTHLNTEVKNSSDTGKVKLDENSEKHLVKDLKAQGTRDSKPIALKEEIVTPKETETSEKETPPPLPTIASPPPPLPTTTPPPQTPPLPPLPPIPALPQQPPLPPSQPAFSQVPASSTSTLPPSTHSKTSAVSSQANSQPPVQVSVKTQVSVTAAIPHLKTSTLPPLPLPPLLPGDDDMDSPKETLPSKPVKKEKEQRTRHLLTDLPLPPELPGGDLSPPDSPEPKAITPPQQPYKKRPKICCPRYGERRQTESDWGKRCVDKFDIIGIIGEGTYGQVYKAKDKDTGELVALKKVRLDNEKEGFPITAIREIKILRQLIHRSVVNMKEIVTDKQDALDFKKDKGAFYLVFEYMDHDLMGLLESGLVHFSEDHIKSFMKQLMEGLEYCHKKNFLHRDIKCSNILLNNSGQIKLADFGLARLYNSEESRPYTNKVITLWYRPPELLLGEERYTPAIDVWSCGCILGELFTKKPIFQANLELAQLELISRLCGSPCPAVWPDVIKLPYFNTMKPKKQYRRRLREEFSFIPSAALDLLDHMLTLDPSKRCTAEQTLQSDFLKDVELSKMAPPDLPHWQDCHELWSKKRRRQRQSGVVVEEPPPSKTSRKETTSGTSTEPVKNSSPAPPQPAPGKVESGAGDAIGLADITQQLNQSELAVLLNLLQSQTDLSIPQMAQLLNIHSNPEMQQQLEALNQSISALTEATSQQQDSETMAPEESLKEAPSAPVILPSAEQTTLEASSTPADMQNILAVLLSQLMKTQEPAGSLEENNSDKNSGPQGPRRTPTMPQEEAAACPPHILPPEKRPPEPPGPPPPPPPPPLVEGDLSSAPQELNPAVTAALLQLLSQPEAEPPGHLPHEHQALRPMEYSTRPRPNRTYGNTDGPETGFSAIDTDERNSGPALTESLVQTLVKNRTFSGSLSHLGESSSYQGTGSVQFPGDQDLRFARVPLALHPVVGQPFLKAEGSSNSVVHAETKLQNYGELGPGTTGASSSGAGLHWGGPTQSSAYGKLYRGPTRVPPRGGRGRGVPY
Chain of CDK12/CycK (O75909 whole entry partner): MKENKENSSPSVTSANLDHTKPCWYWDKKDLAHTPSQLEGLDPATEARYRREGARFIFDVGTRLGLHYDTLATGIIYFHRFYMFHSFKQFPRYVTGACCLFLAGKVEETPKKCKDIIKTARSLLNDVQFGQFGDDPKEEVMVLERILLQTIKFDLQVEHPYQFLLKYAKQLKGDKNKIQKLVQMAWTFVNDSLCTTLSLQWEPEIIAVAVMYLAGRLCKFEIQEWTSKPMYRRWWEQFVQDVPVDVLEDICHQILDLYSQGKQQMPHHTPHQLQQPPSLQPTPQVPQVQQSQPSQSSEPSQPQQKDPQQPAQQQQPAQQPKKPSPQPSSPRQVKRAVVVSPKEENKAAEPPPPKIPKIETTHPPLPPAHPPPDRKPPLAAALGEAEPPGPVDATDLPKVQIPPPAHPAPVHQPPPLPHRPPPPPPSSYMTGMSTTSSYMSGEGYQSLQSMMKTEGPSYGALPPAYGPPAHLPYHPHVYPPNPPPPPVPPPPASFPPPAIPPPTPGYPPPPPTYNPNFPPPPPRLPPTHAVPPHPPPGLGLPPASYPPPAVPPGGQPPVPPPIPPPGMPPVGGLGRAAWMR

| SMILES | IC50 [µM] |
| --- | --- |
| C=CC(=O)N1CCC[C@@H]1C(=O)NCCc1cc2c(-c3ccnn3C)ccnc2[nH]1 [Example 52, (R)-1-Acryloyl-N-(2-(4-(1-methyl-1H-pyrazol-5-yl)-1H-pyrrolo[2,3-b]pyridin-2-yl)ethyl)pyrrolidine-2-carboxamide] | 1 to 30 |
| C=CC(=O)N[C@H]1COC[C@@H]1C(=O)NCc1cc2c(-c3cnn4ncccc34)ccnc2[nH]1 [Example 58, (3R,4R)-4-Acrylamido-N-((4-(pyrazolo[1,5-b]pyridazin-3-yl)-1H-pyrrolo[2,3-b]pyridin-2-yl)methyl)tetrahydrofuran-3-carboxamide] | 1 to 30 |
| C=CC(=O)N[C@@H]1CC[C@@H](C(=O)NCc2cc3c(-c4cnn5ncccc45)ccnc3[nH]2)C1 [Example 59, (1R,3R)-3-Acrylamido-N-((4-(pyrazolo[1,5-b]pyridazin-3-yl)-1H-pyrrolo[2,3-b]pyridin-2-yl)methyl)cyclopentane-1-carboxamide] | 1 to 30 |
| O=C(NCCc1cc2c(-c3cnn4ncccc34)ccnc2[nH]1)[C@@H]1CCCN1C(=O)CO [Example 78, (S)-1-(2-Hydroxyacetyl)-N-(2-(4-(pyrazolo[1,5-b]pyridazin-3-yl)-1H-pyrrolo[2,3-b]pyridin-2-yl)ethyl)pyrrolidine-2-carboxamide] | 0.1 to 1 |
| O=C(NCCc1cc2c(-c3cnn4ncccc34)ccnc2[nH]1)[C@H]1CCCN1C(=O)CO [Example 79, (R)-1-(2-Hydroxyacetyl)-N-(2-(4-(pyrazolo[1,5-b]pyridazin-3-yl)-1H-pyrrolo[2,3-b]pyridin-2-yl)ethyl)pyrrolidine-2-carboxamide] | 0.1 to 1 |
| C=CC(=O)N1CCC(C(=O)NCc2cc3c(-c4cnn5ncccc45)ccnc3[nH]2)CC1 [Example 80, 1-Acryloyl-N-((4-(pyrazolo[1,5-b]pyridazin-3-yl)-1H-pyrrolo[2,3-b]pyridin-2-yl)methyl)piperidine-4-carboxamide] | 1 to 30 |
| O=C(NCCc1cc2c(-c3cnn4ncccc34)ccnc2[nH]1)[C@@H]1CCCN1 [Example 82, (S)—N-(2-(4-(pyrazolo[1,5-b]pyridazin-3-yl)-1H-pyrrolo[2,3-b]pyridin-2-yl)ethyl)pyrrolidine-2-carboxamide] | 0.1 to 1 |
| O=C(NCCc1cc2c(-c3cnn4ncccc34)ccnc2[nH]1)[C@@H]1CCCN1C(=O)/C=C/CN1CCCC1 [Example 85, (S,E)-N-(2-(4-(pyrazolo[1,5-b]pyridazin-3-yl)-1H-pyrrolo[2,3-b]pyridin-2-yl)ethyl)-1-(4-(pyrrolidin-1-yl)but-2-enoyl)pyrrolidine-2-carboxamide] | 1 to 30 |
| O=C(NCCc1cc2c(-c3cnn4ncccc34)ccnc2[nH]1)[C@@H]1CCCN1C(=O)/C=C/CN1CCOCC1 [Example 86, (S,E)-1-(4-Morpholinobut-2-enoyl)-N-(2-(4-(pyrazolo[1,5-b]pyridazin-3-yl)-1H-pyrrolo[2,3-b]pyridin-2-yl)ethyl)pyrrolidine-2-carboxamide] | 1 to 30 |
| CN(C)C/C=C/C(=O)N1CCCC[C@H]1C(=O)NCCc1cc2c(-c3cnn4ncccc34)ccnc2[nH]1 [Example 87, (S,E)-1-(4-(Dimethylamino)but-2-enoyl)-N-(2-(4-(pyrazolo[1,5-b]pyridazin-3-yl)-1H-pyrrolo[2,3-b]pyridin-2-yl)ethyl)piperidine-2-carboxamide] | 1 to 30 |
| CN(C)C/C=C/C(=O)N1CCCC[C@@H]1C(=O)NCCc1cc2c(-c3cnn4ncccc34)ccnc2[nH]1 [Example 88, (R,E)-1-(4-(Dimethylamino)but-2-enoyl)-N-(2-(4-(pyrazolo[1,5-b]pyridazin-3-yl)-1H-pyrrolo[2,3-b]pyridin-2-yl)ethyl)piperidine-2-carboxamide Formate Salt] | 0.1 to 1 |

Results, then the molecule that gave them:

| IC50 [µM] | SMILES |
| --- | --- |
| < 0.1 | C=CC(=O)N1CCC[C@H]1C(=O)NCCc1cc2c(-c3cnn4ncccc34)c(Cl)cnc2[nH]1 [Example 53, (S)-1-Acryloyl-N-(2-(5-chloro-4-(pyrazolo[1,5-b]pyridazin-3-yl)-1H-pyrrolo[2,3-b]pyridin-2-yl)ethyl)pyrrolidine-2-carboxamide] |
| < 0.1 | C=CC(=O)Nc1cccc(C(=O)NCCc2cc3c(-c4cnn5ncccc45)c(Cl)cnc3[nH]2)c1 [Example 56, 3-Acrylamido-N-(2-(5-chloro-4-(pyrazolo[1,5-b]pyridazin-3-yl)-1H-pyrrolo[2,3-b]pyridin-2-yl)ethyl)benzamide] |
| < 0.1 | C=CC(=O)N1CCOC(C(=O)NCCc2cc3c(-c4cnn5ncccc45)ccnc3[nH]2)C1 (stereo not shown) [Example 60, 4-Acryloyl-N-(2-(4-(pyrazolo[1,5-b]pyridazin-3-yl)-1H-pyrrolo[2,3-b]pyridin-2-yl)ethyl)morpholine-2-carboxamide] |
| 0.1 to 1 | C=CC(=O)N[C@@H]1CC[C@@H](C(=O)NCCc2cc3c(-c4cnn5ncccc45)ccnc3[nH]2)C1 [Example 64, (1R,3R)-3-Acrylamido-N-(2-(4-(pyrazolo[1,5-b]pyridazin-3-yl)-1H-pyrrolo[2,3-b]pyridin-2-yl)ethyl)cyclopentane-1-carboxamide] |
| < 0.1 | C=CC(=O)Nc1cncc(C(=O)N2CCC(c3cc4c(-c5cnn6ncccc56)ccnc4[nH]3)C2)c1 (stereo not shown) [Example 65, N-(5-(3-(4-(Pyrazolo[1,5-b]pyridazin-3-yl)-1H-pyrrolo[2,3-b]pyridin-2-yl)pyrrolidine-1-carbonyl)pyridin-3-yl)acrylamide] |
| < 0.1 | CN(C)C/C=C/C(=O)N1CCC(C(=O)N2CCC(c3cc4c(-c5cnn6ncccc56)ccnc4[nH]3)CC2)CC1 [Example 66, (E)-4-(Dimethylamino)-1-(4-(4-(4-(pyrazolo[1,5-b]pyridazin-3-yl)-1H-pyrrolo[2,3-b]pyridin-2-yl)piperidine-1-carbonyl)piperidin-1-yl)but-2-en-1-one] |
| < 0.1 | CN(C)C/C=C/C(=O)N1CC[C@@H](C(=O)N2CCC(c3cc4c(-c5cnn6ncccc56)ccnc4[nH]3)CC2)C1 [Example 67, (R,E)-4-(Dimethylamino)-1-(3-(4-(4-(pyrazolo[1,5-b]pyridazin-3-yl)-1H-pyrrolo[2,3-b]pyridin-2-yl)piperidine-1-carbonyl)pyrrolidin-1-yl)but-2-en-1-one] |
| < 0.1 | CN(C)C/C=C/C(=O)Nc1cncc(C(=O)N2CC[C@H](c3cc4c(-c5cnn6ncccc56)ccnc4[nH]3)C2)c1 [Example 68, (S,E)-4-(Dimethylamino)-N-(5-(3-(4-(pyrazolo[1,5-b]pyridazin-3-yl)-1H-pyrrolo[2,3-b]pyridin-2-yl)pyrrolidine-1-carbonyl)pyridin-3-yl)but-2-enamide] |
| < 0.1 | C=CC(=O)N1CCCC(C(=O)NCCc2cc3c(-c4cnn5ncccc45)ccnc3[nH]2)C1 (stereo not shown) [Example 75, 1-Acryloyl-N-(2-(4-(pyrazolo[1,5-b]pyridazin-3-yl)-1H-pyrrolo[2,3-b]pyridin-2-yl)ethyl)piperidine-3-carboxamide] |
| 0.1 to 1 | C=CC(=O)N1CCC(C(=O)NCCc2cc3c(-c4cnn5ncccc45)ccnc3[nH]2)CC1 [Example 77, 1-Acryloyl-N-(2-(4-(pyrazolo[1,5-b]pyridazin-3-yl)-1H-pyrrolo[2,3-b]pyridin-2-yl)ethyl)piperidine-4-carboxamide] |
| < 0.1 | CCOCCC(=O)Nc1ccc(C(=O)NCCc2cc3c(-c4cnn5ncccc45)ccnc3[nH]2)cc1 [Example 81, 4-(3-Ethoxypropanamido)-N-(2-(4-(pyrazolo[1,5-b]pyridazin-3-yl)-1H-pyrrolo[2,3-b]pyridin-2-yl)ethyl)benzamide] |
